According to ChEMBL document CHEMBL1126340, “Dual-acting thromboxane receptor antagonist/synthase inhibitors: heterocyclic variations” (Bioorg Med Chem Lett, 1992):
Values belong to the molecule of their own block, whether it stands above or below them.

Experiments:
Thromboxane-A synthase = biological target: T1, Thromboxane-A synthase (Homo sapiens, UniProt P24557); experiment: Inhibition of human Thromboxane A2 synthase
T1 sequence (P24557 whole entry): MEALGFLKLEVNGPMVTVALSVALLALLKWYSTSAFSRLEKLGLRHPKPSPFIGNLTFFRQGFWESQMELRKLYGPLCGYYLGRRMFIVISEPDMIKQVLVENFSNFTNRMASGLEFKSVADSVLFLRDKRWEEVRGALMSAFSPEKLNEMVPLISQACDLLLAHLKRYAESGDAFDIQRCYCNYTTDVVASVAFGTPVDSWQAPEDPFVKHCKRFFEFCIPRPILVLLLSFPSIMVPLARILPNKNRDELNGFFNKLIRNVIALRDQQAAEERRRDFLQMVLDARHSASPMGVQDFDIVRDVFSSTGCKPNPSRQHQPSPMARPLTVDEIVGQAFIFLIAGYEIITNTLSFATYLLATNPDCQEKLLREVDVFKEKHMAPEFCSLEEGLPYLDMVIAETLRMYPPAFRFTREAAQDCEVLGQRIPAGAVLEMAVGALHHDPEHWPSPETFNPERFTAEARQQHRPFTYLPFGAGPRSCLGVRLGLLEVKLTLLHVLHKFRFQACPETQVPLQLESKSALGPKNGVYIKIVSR

Thromboxane A2 receptor = biological target: T2, Thromboxane A2 receptor (Homo sapiens, UniProt P21731); experiment: Antagonistic potency against Thromboxane A2 receptor expressed as inhibition of U 46619-induced platelet aggregation in human platelet rich plasma.; format: functional; settings: read-out: pA2 (converted)
T2 sequence (P21731 whole entry): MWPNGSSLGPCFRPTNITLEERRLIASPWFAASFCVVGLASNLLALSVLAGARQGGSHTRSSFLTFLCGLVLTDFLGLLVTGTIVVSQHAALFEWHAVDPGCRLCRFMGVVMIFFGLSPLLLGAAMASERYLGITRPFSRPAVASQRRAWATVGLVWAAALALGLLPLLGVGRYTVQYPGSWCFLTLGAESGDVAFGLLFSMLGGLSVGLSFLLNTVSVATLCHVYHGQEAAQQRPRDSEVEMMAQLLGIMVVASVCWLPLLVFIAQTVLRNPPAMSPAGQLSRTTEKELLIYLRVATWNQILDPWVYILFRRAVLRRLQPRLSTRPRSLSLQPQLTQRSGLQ

Canis familiaris [1] = experiment: Compound was tested in vivo for blockade of U 46619-induced platelet aggregation in conscious dog at a oral dose of 1 mg/kg; Expressed as Concentration ratio; format: functional, Canis lupus familiaris
Canis familiaris [2] = experiment: Compound was tested in vivo for inhibition of serum TXB2 formation in conscious dog at a oral dose of 1 mg/kg; format: functional; settings: Canis lupus familiaris

SMILES: CC1(C)OC[C@@H](C/C=C\CCC(=O)O)[C@@H](c2cccs2)O1
- IC50 (Thromboxane-A synthase): 4.1 µM

SMILES: CC1(C)OC[C@@H](C/C=C\CCC(=O)O)[C@@H](c2cncnc2)O1
- IC50 (Thromboxane-A synthase): > 10 µM

SMILES: CCCCCCn1cncc1[C@H]1OC(C)(C)OC[C@H]1C/C=C\CCC(=O)O
- IC50 (Thromboxane-A synthase): 0.9 µM

SMILES: CC1(C)OC[C@@H](C/C=C\CCC(=O)O)[C@@H](c2ccnnc2)O1
- IC50 (Thromboxane-A synthase): 7.4 µM

SMILES: CC1(C)OC[C@@H](C/C=C\CCC(=O)O)[C@@H](c2cnco2)O1
- IC50 (Thromboxane-A synthase): > 10 µM

SMILES: CC1(C)OC[C@@H](C/C=C\CCC(=O)O)[C@@H](c2cnccn2)O1
- IC50 (Thromboxane-A synthase): > 10 µM

Molecules with a lower IC50 (Thromboxane-A synthase), results first:

- IC50 (Thromboxane-A synthase): 0.05 µM
- Kb (Thromboxane A2 receptor): 0.00398 µM
SMILES: Cc1ccc(OC(C)(C)[C@H]2OC[C@@H](C/C=C\CCC(=O)O)[C@@H](c3cncn3C)O2)c([N+](=O)[O-])c1

- IC50 (Thromboxane-A synthase): 0.019 µM
- Kb (Thromboxane A2 receptor): 0.00398 µM
SMILES: Cc1ccc(OC(C)(C)[C@H]2OC[C@@H](C/C=C\CCC(=O)O)[C@@H](c3cccnc3)O2)c([N+](=O)[O-])c1

- IC50 (Thromboxane-A synthase): 0.07 µM
SMILES: Cn1cncc1[C@H]1OC(C)(C)OC[C@H]1C/C=C\CCC(=O)O

- IC50 (Thromboxane-A synthase): 0.49 µM
- Kb (Thromboxane A2 receptor): 0.2 µM
SMILES: CCCCCCn1cncc1[C@H]1O[C@@H](C(C)(C)Oc2ccc(C)cc2[N+](=O)[O-])OC[C@H]1C/C=C\CCC(=O)O

- IC50 (Thromboxane-A synthase): 0.12 µM
SMILES: CC1(C)OC[C@@H](C/C=C\CCC(=O)O)[C@@H](c2cccnc2)O1

- IC50 (Thromboxane-A synthase): 0.018 µM
- Kb (Thromboxane A2 receptor): 0.00501 µM
SMILES: Cc1ccc(OC(C)(C)[C@H]2OC[C@@H](C/C=C\CCC(=O)O)[C@@H](c3cncs3)O2)c([N+](=O)[O-])c1
- Activity (Canis familiaris [1]): >50
- inhibition in vivo at 1 mg/kg (Canis familiaris [2]): 60%

- IC50 (Thromboxane-A synthase): 0.08 µM
SMILES: CC1(C)OC[C@@H](C/C=C\CCC(=O)O)[C@@H](c2cncs2)O1
